Laboratory results published in patent publication US8952034B2, “Fused heterocyclic compounds as ion channel modulators” (Gilead Sciences, Inc., priority 2009, dated 2015).

Molecular target: wild-type human cardiac sodium channel, hNav1.5 (Homo sapiens, UniProt Q14524)
Assay: Late INa screening assay (automated whole cell patch clamp, PatchXpress)
Assay type: cell-based
Details: HEK293 cells expressing hNav1.5, late INa generated with 10 μM Tefluthrin (or 50 nM ATX II); for inhibition at 1 µM: compound at 1 μM, read-out: LateINa_1 uM (percent block of late INa); for inhibition at 10 µM: compound at 10 μM, read-out: LateINa_10 uM (percent block of late INa)
How it was run: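 Late sodium current through wild-type human hNav1.5 stably expressed in HEK293 cells (no beta subunits) was recorded by automated whole-cell patch clamp on a PatchXpress 7000A at 24-27° C. Late INa was induced with 10 μM Tefluthrin or 50 nM ATX II. Cells were stepped from −120 mV to −20 mV for 250 ms at 0.1 Hz, and percent block was normalized to current in Na-free extracellular solution.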

Sequence of wild-type human cardiac sodium channel, hNav1.5 (Q14524 whole entry): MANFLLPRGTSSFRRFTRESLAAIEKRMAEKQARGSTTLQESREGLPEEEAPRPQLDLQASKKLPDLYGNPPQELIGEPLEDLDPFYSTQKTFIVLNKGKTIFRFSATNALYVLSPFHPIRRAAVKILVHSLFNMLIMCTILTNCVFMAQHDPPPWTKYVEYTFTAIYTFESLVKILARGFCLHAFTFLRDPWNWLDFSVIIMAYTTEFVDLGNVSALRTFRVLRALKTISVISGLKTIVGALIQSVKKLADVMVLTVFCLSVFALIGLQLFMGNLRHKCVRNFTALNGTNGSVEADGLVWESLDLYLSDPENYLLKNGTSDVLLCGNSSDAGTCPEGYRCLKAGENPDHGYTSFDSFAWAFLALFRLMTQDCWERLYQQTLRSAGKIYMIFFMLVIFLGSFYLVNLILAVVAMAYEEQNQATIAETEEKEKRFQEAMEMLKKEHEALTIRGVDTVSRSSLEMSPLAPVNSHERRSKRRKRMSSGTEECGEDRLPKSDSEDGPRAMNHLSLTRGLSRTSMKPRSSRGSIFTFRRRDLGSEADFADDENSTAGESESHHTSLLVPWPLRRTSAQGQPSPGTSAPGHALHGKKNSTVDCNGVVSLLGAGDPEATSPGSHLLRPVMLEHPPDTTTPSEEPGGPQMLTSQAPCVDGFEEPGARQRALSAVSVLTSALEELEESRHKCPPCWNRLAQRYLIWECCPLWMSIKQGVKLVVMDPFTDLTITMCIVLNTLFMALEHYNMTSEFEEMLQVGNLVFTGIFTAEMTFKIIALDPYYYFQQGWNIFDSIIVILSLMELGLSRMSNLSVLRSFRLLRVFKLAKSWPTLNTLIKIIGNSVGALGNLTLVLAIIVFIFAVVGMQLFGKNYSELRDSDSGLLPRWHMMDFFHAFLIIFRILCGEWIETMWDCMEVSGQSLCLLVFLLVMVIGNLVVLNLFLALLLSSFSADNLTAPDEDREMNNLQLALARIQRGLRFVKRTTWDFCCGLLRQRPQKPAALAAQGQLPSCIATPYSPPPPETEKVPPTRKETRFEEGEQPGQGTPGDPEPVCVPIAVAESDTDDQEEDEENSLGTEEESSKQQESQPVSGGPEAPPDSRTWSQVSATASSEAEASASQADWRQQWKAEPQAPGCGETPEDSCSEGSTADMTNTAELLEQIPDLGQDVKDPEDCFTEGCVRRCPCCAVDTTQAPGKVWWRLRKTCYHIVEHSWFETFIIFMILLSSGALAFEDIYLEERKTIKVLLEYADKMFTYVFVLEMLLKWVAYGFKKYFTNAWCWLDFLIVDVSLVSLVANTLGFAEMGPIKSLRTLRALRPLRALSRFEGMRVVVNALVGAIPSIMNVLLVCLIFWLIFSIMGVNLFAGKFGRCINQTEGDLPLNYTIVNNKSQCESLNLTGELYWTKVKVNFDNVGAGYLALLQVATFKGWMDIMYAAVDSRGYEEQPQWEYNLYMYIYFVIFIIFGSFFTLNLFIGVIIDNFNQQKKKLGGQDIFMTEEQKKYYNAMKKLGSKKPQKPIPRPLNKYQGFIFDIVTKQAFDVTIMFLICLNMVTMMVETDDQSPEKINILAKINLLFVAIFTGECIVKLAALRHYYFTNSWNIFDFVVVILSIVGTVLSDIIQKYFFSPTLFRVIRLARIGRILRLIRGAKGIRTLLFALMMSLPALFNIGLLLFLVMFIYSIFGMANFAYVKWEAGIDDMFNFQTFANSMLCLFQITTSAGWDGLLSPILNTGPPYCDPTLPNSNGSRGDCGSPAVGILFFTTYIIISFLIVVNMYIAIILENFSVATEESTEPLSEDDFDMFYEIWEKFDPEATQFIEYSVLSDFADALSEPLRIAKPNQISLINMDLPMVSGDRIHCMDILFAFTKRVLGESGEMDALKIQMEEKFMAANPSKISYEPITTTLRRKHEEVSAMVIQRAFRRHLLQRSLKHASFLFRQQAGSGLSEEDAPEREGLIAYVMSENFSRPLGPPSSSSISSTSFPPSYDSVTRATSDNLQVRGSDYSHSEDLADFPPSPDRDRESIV

Row | SMILES | inhibition at 1 µM | inhibition at 10 µM
1 | FC(F)(F)Oc1ccc(-c2ccc3nnc(C(F)(F)F)n3c2)c2cccnc12 [BHN-108, 8-(trifluoromethoxy)-5-[3-(trifluoromethyl)[1,2,4]triazolo[4,3-a]pyridin-6-yl]quinoline] | 45.7% | 63.1%
2 | CC(O)COC(F)(F)c1nnc2ccc(-c3ccc(OC(F)(F)F)cc3)cn12 (stereo not drawn) [BHN-158, 1-(difluoro{6-[4-(trifluoromethoxy)phenyl][1,2,4]triazolo[4,3-a]pyridin-3-yl}methoxy)propan-2-ol] | 32.9% | –
3 | O=C(NCC(F)(F)c1nnc2ccc(-c3ccc(OC(F)(F)F)cc3)cn12)c1ccccc1 [BHN-243, N-(2,2-difluoro-2-{6-[4-(trifluoromethoxy)phenyl][1,2,4]triazolo[4,3-a]pyridin-3-yl}ethyl)benzamide] | 21% | –
4 | FC(F)(F)Oc1ccc(-c2ccc3nncn3n2)cc1 [BHN-25, 6-[4-(trifluoromethoxy)phenyl][1,2,4]triazolo[4,3-b]pyridazine] | – | 39%
5 | FC(F)(F)c1cc(-c2ccc3nnc(C(F)(F)F)n3c2)ccc1Cl [BHN-10, 6-[4-chloro-3-(trifluoromethyl)phenyl]-3-(trifluoromethyl)[1,2,4]triazolo[4,3-a]pyridine] | – | 51.2%
6 | c1ccc(Oc2ccc(-c3ccc4nnc(-c5ccc(-c6nn[nH]n6)cc5)n4n3)cc2)cc1 [BHN-50, 6-(4-phenoxyphenyl)-3-[4-(2H-tetrazol-5-yl)phenyl][1,2,4]triazolo[4,3-b]pyridazine] | – | 31%
7 | Cn1cc(-c2nnc3ccc(-c4ccc(Oc5ccccc5)cc4)nn23)cn1 [BHN-43, 3-(1-methyl-1H-pyrazol-4-yl)-6-(4-phenoxyphenyl)[1,2,4]triazolo[4,3-b]pyridazine] | – | 25.2%
8 | CCOC(=O)c1cccc(-c2ccc3nnc(-c4cccc(C(=O)OCC)c4)n3c2)c1 [BHN-80, diethyl 3,3′-[1,2,4]triazolo[4,3-a]pyridine-3,6-diyldibenzoate] | – | 59%
9 | FC(F)(F)c1nnc2ccc(-c3ccc(NC(c4ccccc4)C(F)(F)F)cc3)cn12 (stereo not drawn) [BHN-123, 4-[3-(trifluoromethyl)[1,2,4]triazolo[4,3-a]pyridin-6-yl]-N-(2,2,2-trifluoro-1-phenylethyl)aniline] | 23.4% | –
10 | FC(F)(F)Oc1ccc(-c2ccc3nnc(COCc4ccccn4)n3c2)cc1 [BHN-244, 3-[(pyridin-2-ylmethoxy)methyl]-6-[4-(trifluoromethoxy)phenyl][1,2,4]triazolo[4,3-a]pyridine] | 17.5% | –
11 | CC(=O)Nc1cc(-c2ccc(OC(F)(F)F)cc2C)cn2c(C)nnc12 [BHN-76, N-{3-methyl-6-[2-methyl-4-(trifluoromethoxy)phenyl][1,2,4]triazolo[4,3-a]pyridin-8-yl}acetamide] | – | 31.9%
12 | COc1cc(-c2ccc3nnc(C(F)(F)F)n3c2)cc(OC)c1OC [BHN-107, 3-(trifluoromethyl)-6-(3,4,5-trimethoxyphenyl)[1,2,4]triazolo[4,3-a]pyridine] | 16.5% | –
13 | O=[N+]([O-])c1ccc(-c2ccc3nnc(C(F)(F)F)n3c2)c(Cl)c1 [BHN-292, 6-(2-chloro-4-nitrophenyl)-3-(trifluoromethyl)[1,2,4]triazolo[4,3-a]pyridine] | 26% | –
14 | CC(=O)c1ccc(-c2ccc3nnc(C(F)(F)F)n3c2)cc1 [BHN-154, 1-(4-(3-(trifluoromethyl)-[1,2,4]triazolo[4,3-a]pyridin-6-yl)phenyl)ethanone] | 19.2% | –
15 | FC(F)(F)Oc1ccc(-c2ccc3nnc(C(F)(F)OCc4cc(C(F)(F)F)nc5ccccc45)n3c2)cc1 [BHN-290, 4-[(difluoro{6-[4-(trifluoromethoxy)phenyl][1,2,4]triazolo[4,3-a]pyridin-3-yl}methoxy)methyl]-2-(trifluoromethyl)quinoline] | 34.6% | –
16 | Fc1ccc(COCC(F)(F)c2nnc3ccc(-c4ccc(OC(F)(F)F)cc4)cn23)cc1F [BHN-190, 3-{2-[(3,4-difluorobenzyl)oxy]-1,1-difluoroethyl}-6-[4-(trifluoromethoxy)phenyl][1,2,4]triazolo[4,3-a]pyridine] | 24.3% | –
17 | FC(F)(F)c1nnc2ccc(-c3ccc(C4CC4)cc3)cn12 [BHN-90, 6-(4-cyclopropylphenyl)-3-(trifluoromethyl)[1,2,4]triazolo[4,3-a]pyridine] | 63.4% | 74.9%
18 | FC(F)(F)Oc1ccc(-c2ccc3nnc(C(F)(F)OCc4noc(-c5ccccc5)n4)n3c2)cc1 [BHN-323, 3-{difluoro[(5-phenyl-1,2,4-oxadiazol-3-yl)methoxy]methyl}-6-[4-(trifluoromethoxy)phenyl][1,2,4]triazolo[4,3-a]pyridine] | 73% | –

Row | SMILES | inhibition at 1 µM | inhibition at 10 µM
19 | FC(F)(F)COc1ccc(-c2ccc3cnc(C(F)(F)F)n3c2)cn1 [BHN-179, 6-[6-(2,2,2-trifluoroethoxy)pyridin-3-yl]-3-(trifluoromethyl)imidazo[1,5-a]pyridine] | 49.7% | –
20 | COc1ccc(N2CCN(CCOC(F)(F)c3nnc4ccc(-c5ccc(OC(F)(F)F)cc5)cn34)CC2)cc1 [BHN-264, 3-(difluoro{2-[4-(4-methoxyphenyl)piperazin-1-yl]ethoxy}methyl)-6-[4-(trifluoromethoxy)phenyl][1,2,4]triazolo[4,3-a]pyridine] | 54.3% | –
21 | FC(F)(F)COc1ccc(-c2ccc3nnc(C(F)(F)OCc4cc(-c5ccccc5)on4)n3c2)cn1 [BHN-324, 3-{difluoro[(5-phenyl-1,2-oxazol-3-yl)methoxy]methyl}-6-[6-(2,2,2-trifluoroethoxy)pyridin-3-yl][1,2,4]triazolo[4,3-a]pyridine] | 46.3% | –
22 | FC(F)(F)Oc1ccc(-c2ccc3nnc(C(F)(F)OCc4ccc5nccnc5c4)n3c2)cc1 [BHN-291, 6-[(difluoro{6-[4-(trifluoromethoxy)phenyl][1,2,4]triazolo[4,3-a]pyridin-3-yl}methoxy)methyl]quinoxaline] | 47% | –
23 | FC(F)(F)c1ccc(-c2ccc3nnc(C(F)(F)F)n3c2)nn1 [BHN-121, 3-(trifluoromethyl)-6-[6-(trifluoromethyl)pyridazin-3-yl][1,2,4]triazolo[4,3-a]pyridine] | 21.9% | –
24 | N#Cc1nc(C(F)(F)F)n2cc(-c3ccc(OC(F)(F)F)cc3)ccc12 [BHN-117, 6-[4-(trifluoromethoxy)phenyl]-3-(trifluoromethyl)imidazo[1,5-a]pyridine-1-carbonitrile] | 66.3% | –
25 | CCC(=O)Nc1cc(-c2ccc(OC(F)(F)F)cc2)cn2c(C)nnc12 [BHN-85, N-{3-methyl-6-[4-(trifluoromethoxy)phenyl][1,2,4]triazolo[4,3-a]pyridin-8-yl}propanamide] | – | 20.5%
26 | Cc1nnc(-c2ccc(-c3ccc4nnc(C(F)(F)F)n4c3)cc2)o1 [BHN-71, 6-[4-(5-methyl-1,3,4-oxadiazol-2-yl)phenyl]-3-(trifluoromethyl)[1,2,4]triazolo[4,3-a]pyridine] | – | 20.5%
27 | Fc1ccccc1COCc1nnc2ccc(-c3ccc(OC(F)(F)F)cc3)cn12 [BHN-238, 3-{[(2-fluorobenzyl)oxy]methyl}-6-[4-(trifluoromethoxy)phenyl][1,2,4]triazolo[4,3-a]pyridine] | 80.6% | –
28 | Cc1cc(COC(F)(F)c2nnc3ccc(-c4ccc(OC(F)(F)F)cc4)cn23)no1 [BHN-193, 3-{difluoro[(5-methyl-1,2-oxazol-3-yl)methoxy]methyl}-6-[4-(trifluoromethoxy)phenyl][1,2,4]triazolo[4,3-a]pyridine] | 54.7% | –
29 | Fc1cc(-c2ccc3nnc(C(F)(F)F)n3c2)ccc1Cl [BHN-14, 6-(4-chloro-3-fluorophenyl)-3-(trifluoromethyl)[1,2,4]triazolo[4,3-a]pyridine] | – | 28.3%
30 | FC(F)(F)c1nnc2ccc(-c3ccc(-n4cncn4)cc3)cn12 [BHN-61, 6-[4-(1H-1,2,4-triazol-1-yl)phenyl]-3-(trifluoromethyl)[1,2,4]triazolo[4,3-a]pyridine] | – | 23.5%
31 | CC(C)(O)C(F)(F)c1nnc2ccc(-c3ccc(OC(F)(F)F)cc3)cn12 [BHN-176, 1,1-difluoro-2-methyl-1-{6-[4-(trifluoromethoxy)phenyl][1,2,4]triazolo[4,3-a]pyridin-3-yl}propan-2-ol] | 15.2% | –
32 | CC(OC(F)(F)c1nnc2ccc(-c3ccc(OC(F)(F)F)cc3)cn12)c1ccc(F)cc1 (stereo not drawn) [BHN-217, 3-{difluoro[1-(4-fluorophenyl)ethoxy]methyl}-6-[4-(trifluoromethoxy)phenyl][1,2,4]triazolo[4,3-a]pyridine] | 16.8% | –
33 | COCC(F)(F)c1nnc2ccc(-c3ccc(Oc4ccccc4)cc3)cn12 [BHN-136, 3-(1,1-difluoro-2-methoxyethyl)-6-(4-phenoxyphenyl)[1,2,4]triazolo[4,3-a]pyridine] | 45% | –
34 | FC(F)(F)c1nnc2ccc(-c3cccc(Oc4ccccc4)c3)cn12 [BHN-9, 6-(3-phenoxyphenyl)-3-(trifluoromethyl)[1,2,4]triazolo[4,3-a]pyridine] | 29.6% | 75.7%
35 | FC(F)(F)c1ccc(C#Cc2ccc3nnc(Oc4ccccc4)n3c2)cc1 [BHN-304, 3-phenoxy-6-{[4-(trifluoromethyl)phenyl]ethynyl}[1,2,4]triazolo[4,3-a]pyridine] | 28.2% | –
36 | FC(F)(F)Oc1ccc(-c2ccc3nnc(C(F)(F)OCc4cccc(-c5cccnc5)c4)n3c2)cc1 [BHN-306, 3-(difluoro{[3-(pyridin-3-yl)benzyl]oxy}methyl)-6-[4-(trifluoromethoxy)phenyl][1,2,4]triazolo[4,3-a]pyridine] | 49.7% | –
